In patent publication US20240308985A1 (Psy Therapeutics, Inc., priority 2021, published 2024):
Read-outs that look alike come from different tables or passages of the source. Each block holds one compound with its values, some of them ahead of it.

Legend:
Type in all cases: biochemical
[1] = biological target: Monoacylglycerol Lipase (MAGL) (Homo sapiens (Human), UniProt Q99685); test: MAGL inhibition potency (IC50) assay with 4NPA substrate
MAGL enzyme = MAGL enzyme (Homo sapiens (Human), UniProt Q99685); test: MAGL reversible inhibition assay (washout); parameters: B: % MAGL activity returning after washout: concentration or dose not given beside the values; conditions: for A: degree to which MAGL enzymatic activity returned following washout of test compounds: pre-washout compound concentration 1 μM; for B: % MAGL activity returning after washout: relative to control (no inhibitor before washout), immediately following a 30 minute washout
Description: The reversible mechanism of MAGL inhibition of a test compound of Formula (I) can be determined. Flag-tagged MAGL enzyme will be immobilized on anti-Flag beads. Immobilized enzyme will be incubated +/− inhibitor at a dose that produces complete inhibition. Colorimetric substrate (4-NPA) will be added and the reaction monitored on a plate reader for 30 minutes to verify complete inhibition. Immobilized enzyme will then be washed thoroughly to remove the inhibitor, and fresh substrate will be added. The reaction will be monitored for an additional 30 minutes; returning enzymatic activity will indicate reversibility of inhibition.
MAGL enzyme was incubated for 30 minutes in the presence of 40× the IC50 concentration of inhibitor. Enzyme+inhibitor mix was then diluted 40-fold so that the final concentration of the inhibitor equaled the IC50 concentration. Substrate was added and the reaction was monitored for 30 minutes.

human recombinant FAAH = human recombinant FAAH (Homo sapiens (Human), UniProt O00519); test: FAAH inhibition potency counter screen (IC50)
Description: Comparative compound potency at FAAH can be obtained with the following assay.
MAGL inhibitor compounds were also counter-screened for FAAH inhibition potency using the following assay. Assessment of FAAH inhibition was performed using Fatty Acid Amide Hydrolase Inhibitor Screening Assay Kit (Cayman Item No. 10005196) following manufacture's instruction with some modifications. The kit utilizes human recombinant FAAH and the fluorescent substrate, AMC Arachidonoyl amide (AAMCA). 5 μL of assay buffer (125 mM Tris, pH 9.0, 1 mM EDTA, i.e. ethylenediaminetetraacetic acid) was added to a 384-well black plate (Corning, 3573). Test compounds and control inhibitor JZL-195 (Cayman Chemical, 13668) were tested in 10-concentration IC50 mode with 3-fold serial dilution at a starting concentration of 100 μM and 10 μM, respectively. 300 nL or 30 nL of test compounds were delivered into a 384-well black plate (Corning, 3573) using a Labcyte Echo, followed by addition of 15 μL of FAAH enzyme (Cayman, 700302) in assay buffer. After a 5-minute pre-incubation at room temperature, 10 μL of AAMCA was added in assay buffer to start the reaction. Final concentration of FAAH enzyme is not specified and AAMCA substrate was used at the 20 uM. After these dilutions, the final concentration of the test compounds ranged from 100 μM to 5.08 nM or 10 μM down to 0.508 nM. The reaction was allowed to progress for 60 minutes, while the plate was read on an Envision plate reader at an Ex/Em of 350/460 nm with readings every minute. The data was analyzed in Microsoft Excel, using the slope between 30 and 59 minutes. The average of the no-enzyme wells (background) was subtracted from the data. The background-subtracted slope data was converted to % activity using the average of wells with enzyme and DMSO vehicle. IC50 values were calculated using GraphPad software (Sigmoidal dose response, variable slope equation).
Compounds listed in Table D2 were tested in the FAAH Counterscreen of Example 23

[2] = Method 12: Reaction Biology MAGL enzyme, 15 nM, read-out: MAGL Potency (Detection Method)
[3] = Method A: starting concentration of 100 μM
[4] = Method 2: Cayman Chemical MAGL enzyme, 10 nM, read-out: MAGL Potency (Detection Method)
[5] = Method B: starting concentration of 10 μM
[6] = Method 12: Reaction Biology MAGL enzyme, 15 nM, read-out: Potency (MAGL inhibition)

MAGL enzyme, sequence (Q99685 whole entry): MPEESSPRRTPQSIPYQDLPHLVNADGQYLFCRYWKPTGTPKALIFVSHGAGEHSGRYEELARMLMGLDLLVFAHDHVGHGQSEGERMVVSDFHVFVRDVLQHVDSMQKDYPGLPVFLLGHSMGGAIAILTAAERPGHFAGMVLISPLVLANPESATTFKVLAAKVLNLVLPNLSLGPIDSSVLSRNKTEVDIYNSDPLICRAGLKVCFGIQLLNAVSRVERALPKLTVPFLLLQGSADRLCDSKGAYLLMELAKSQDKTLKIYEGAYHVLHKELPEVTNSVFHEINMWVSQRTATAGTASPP
Monoacylglycerol Lipase (MAGL), sequence (Q99685 2-303): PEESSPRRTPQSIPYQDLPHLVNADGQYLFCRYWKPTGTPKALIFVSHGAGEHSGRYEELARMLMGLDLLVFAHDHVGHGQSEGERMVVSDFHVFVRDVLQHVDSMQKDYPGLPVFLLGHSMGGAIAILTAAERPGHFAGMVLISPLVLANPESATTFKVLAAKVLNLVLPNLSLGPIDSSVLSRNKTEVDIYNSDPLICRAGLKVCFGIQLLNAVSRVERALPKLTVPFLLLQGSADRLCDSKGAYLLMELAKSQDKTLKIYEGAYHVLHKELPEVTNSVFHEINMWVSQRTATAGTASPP
human recombinant FAAH, sequence (O00519 whole entry): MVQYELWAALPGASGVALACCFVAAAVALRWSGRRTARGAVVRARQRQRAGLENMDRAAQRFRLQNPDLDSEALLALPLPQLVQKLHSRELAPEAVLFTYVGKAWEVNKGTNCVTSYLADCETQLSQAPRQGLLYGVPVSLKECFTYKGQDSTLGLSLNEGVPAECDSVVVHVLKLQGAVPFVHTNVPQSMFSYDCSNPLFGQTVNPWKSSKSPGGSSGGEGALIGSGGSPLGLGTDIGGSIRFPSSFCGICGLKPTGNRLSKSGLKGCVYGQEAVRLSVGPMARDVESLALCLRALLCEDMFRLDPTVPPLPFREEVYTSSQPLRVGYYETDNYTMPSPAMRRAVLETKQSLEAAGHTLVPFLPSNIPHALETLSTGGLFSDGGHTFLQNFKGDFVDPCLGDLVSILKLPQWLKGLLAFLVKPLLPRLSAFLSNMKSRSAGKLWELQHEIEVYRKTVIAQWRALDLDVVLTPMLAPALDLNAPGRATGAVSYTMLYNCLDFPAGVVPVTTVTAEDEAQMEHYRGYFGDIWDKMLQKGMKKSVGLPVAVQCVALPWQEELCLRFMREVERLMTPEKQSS

Structure (SMILES): Cc1ccccc1-n1nc(C2CC3(C2)CN(C(=O)c2cc(O)ccc2F)C3)cc1C [Compound 117]
- IC50 (human recombinant FAAH; [3]): > 10000 nM

Structure (SMILES): Cc1cc(C2CC3(C2)CN(C(=O)c2ccccc2F)C3)n(-c2ccccc2C)n1 [Compound 122, (2-fluorophenyl)(6-(3-methyl-1-(o-tolyl)-1H-pyrazol-5-yl)-2-azaspiro[3.3]heptan-2-yl)methanone]
- IC50 (human recombinant FAAH; [3]): > 10000 nM
- IC50 [1, 4]: 1000 to 5100 nM

Structure (SMILES): COc1ccc(F)c(C(=O)N2CC3(CC(c4cc(C)nn4-c4ccccc4C)C3)C2)c1 [Compound 123]
- IC50 (human recombinant FAAH; [3]): > 10000 nM
- IC50 ([1]; Method 2: Cayman Chemical MAGL enzyme, 10 nM, read-out: Potency (MAGL inhibition)): > 10000 nM

Structure (SMILES): Cc1cc(C2CC3(C2)CN(C(=O)c2cccc(O)c2)C3)n(-c2ccccc2C)n1 [Compound 125, (3-hydroxyphenyl)(6-(3-methyl-1-(o-tolyl)-1H-pyrazol-5-yl)-2-azaspiro[3.3]heptan-2-yl)methanone]
- IC50 (human recombinant FAAH; [3]): > 10000 nM
- IC50 ([1]; Methods 1, 2, read-out: MAGL Potency (Detection Method)): 50 to 150 nM

Structure (SMILES): Cc1cc(C2CC3(C2)CN(C(=O)c2c(F)ccc(O)c2F)C3)n(-c2ccccc2C)n1 [Compound 127, (2,6-difluoro-3-hydroxyphenyl)(6-(3-methyl-1-(o-tolyl)-1H-pyrazol-5-yl)-2-azaspiro[3.3]heptan-2-yl)methanone]
- IC50 (human recombinant FAAH; [3]): > 10000 nM
- IC50 [1, 4]: 1000 to 5100 nM

Structure (SMILES): O=C(c1cc(O)ccc1F)N1CC2(CC(n3cc(C(F)(F)F)c(-c4ccccc4F)n3)C2)C1 [Compound 473, (2-fluoro-5-hydroxyphenyl){6-[3-(o-fluorophenyl)-4-(trifluoromethyl)-1-pyrazolyl]-2-aza-2-spiro[3.3]heptyl}methanone]
- IC50 (human recombinant FAAH; [5]): > 10000 nM
- IC50 [1, 2]: < 50 nM
- A: degree to which MAGL enzymatic activity returned following washout of test compounds (MAGL enzyme): 41
- B: % MAGL activity returning after washout (MAGL enzyme): <50%

Structure (SMILES): O=C(c1cc(O)ccc1F)N1CC2(CC(n3nc(C(F)(F)F)cc3-c3ccccc3C(F)(F)F)C2)C1 [Compound 487, (2-fluoro-5-hydroxyphenyl)(6-{3-(trifluoromethyl)-5-[o-(trifluoromethyl)phenyl]-1-pyrazolyl}-2-aza-2-spiro[3.3]heptyl)methanone]
- IC50 ([1]; Method 13: Reaction Biology MAGL enzyme, 12 nM, read-out: MAGL Potency (Detection Method)): 150 to 500 nM

Structure (SMILES): O=C(c1cc(O)ccc1F)N1CC2(CC(n3cc(C4CC4)c(-c4ccccc4C(F)(F)F)n3)C2)C1 [Compound 488, (6-{4-cyclopropyl-3-[o-(trifluoromethyl)phenyl]-1-pyrazolyl}-2-aza-2-spiro[3.3]heptyl)(2-fluoro-5-hydroxyphenyl)methanone]
- IC50 [1, 2]: < 50 nM

Structure (SMILES): O=C(c1cc(O)ccc1F)N1CC2(CC(n3cc(C4CC4)c(-c4ccccc4F)n3)C2)C1 [Compound 493, {6-[4-cyclopropyl-3-(o-fluorophenyl)-1-pyrazolyl]-2-aza-2-spiro[3.3]heptyl}(2-fluoro-5-hydroxyphenyl)methanone]
- IC50 (human recombinant FAAH; [5]): > 10000 nM
- IC50 [1, 2]: < 50 nM
- A: degree to which MAGL enzymatic activity returned following washout of test compounds (MAGL enzyme): 47
- B: % MAGL activity returning after washout (MAGL enzyme): <50%

Structure (SMILES): Cc1cnn(C2CC3(C2)CN(C(=O)c2cc(O)ccc2C(F)(F)F)C3)c1-c1ccccc1F [Compound 494]
- IC50 [1, 6]: > 10000 nM

Structure (SMILES): Cc1cn(C2CC3(C2)CN(C(=O)c2cc(O)ccc2C(F)(F)F)C3)nc1-c1ccccc1F [Compound 495]
- IC50 [1, 6]: > 10000 nM

Structure (SMILES): O=C(Oc1ccc([N+](=O)[O-])cc1)N1CCC(C(O)(c2ccc3c(c2)OCO3)c2ccc3c(c2)OCO3)CC1 [JZL-184, reference compound]
- A: degree to which MAGL enzymatic activity returned following washout of test compounds (MAGL enzyme): complete lack of return of MAGL enzymatic activity after washout
- B: % MAGL activity returning after washout (MAGL enzyme): <1%

Results, then the compound that gave them:

- IC50 [1, 2]: 50 to 150 nM
- A: degree to which MAGL enzymatic activity returned following washout of test compounds (MAGL enzyme): 155
- B: % MAGL activity returning after washout (MAGL enzyme): >50%
Structure (SMILES): Cc1cnn(C2CC3(C2)CN(C(=O)c2cc(O)ccc2F)C3)c1-c1cc(F)ccc1Cl (single isomer, unassigned) [Compound 519, (6-(5-(2-chloro-5-fluorophenyl)-4-methyl-1H-pyrazol-1-yl)-2-azaspiro [3.3]heptan-2-yl) (2-fluoro-5-hydroxyphenyl) methanone]

- IC50 [1, 2]: < 50 nM
- A: degree to which MAGL enzymatic activity returned following washout of test compounds (MAGL enzyme): 100
- B: % MAGL activity returning after washout (MAGL enzyme): >50%
Structure (SMILES): Cc1cn(C2CC3(C2)CN(C(=O)c2cc(O)ccc2F)C3)nc1-c1cc(F)ccc1Cl [Compound 520, {6-[3-(2-chloro-5-fluorophenyl)-4-methyl-1-pyrazolyl]-2-aza-2-spiro[3.3]heptyl}(2-fluoro-5-hydroxyphenyl)methanone]

- IC50 [1, 6]: > 10000 nM
Structure (SMILES): O=C(c1c(F)cccc1OC1CC1)N1CC2(CC(n3ncc(C(F)(F)F)c3-c3ccccc3F)C2)C1 [Compound 521]

- IC50 [1, 2]: 1000 to 5100 nM
Structure (SMILES): O=C(c1c(F)cccc1OC1CC1)N1CC2(CC(n3cc(C(F)(F)F)c(-c4ccccc4F)n3)C2)C1 [Compound 522, (2-cyclopropoxy-6-fluorophenyl){6-[3-(o-fluorophenyl)-4-(trifluoromethyl)-1-pyrazolyl]-2-aza-2-spiro[3.3]heptyl}methanone]

- IC50 [1, 2]: 1000 to 5100 nM
Structure (SMILES): O=C(c1ccc(F)cc1OC1CC1)N1CC2(CC(n3ncc(C(F)(F)F)c3-c3ccccc3F)C2)C1 [Compound 523, (2-cyclopropoxy-4-fluorophenyl) {6-[5-(o-fluorophenyl)-4-(trifluoromethyl)~1-pyrazolyl]-2-aza-2-spiro[3.3]heptyl}methanone]

- IC50 [1, 2]: 150 to 500 nM
Structure (SMILES): O=C(c1ccc(F)cc1OC1CC1)N1CC2(CC(n3cc(C(F)(F)F)c(-c4ccccc4F)n3)C2)C1 [Compound 524, (2-cyclopropoxy-4-fluorophenyl){6-[3-(o-fluorophenyl)-4-(trifluoromethyl)-1-pyrazolyl]-2-aza-2-spiro[3.3]heptyl}methanone]

- IC50 [1, 2]: < 50 nM
Structure (SMILES): O=C(c1cc(O)ccc1F)N1CC2(CC(n3ccc(-c4ccccc4C(F)(F)F)n3)C2)C1 [Compound 525, (2-fluoro-5-hydroxyphenyl)(6-{3-[o-(trifluoromethyl)phenyl]-1-pyrazolyl}-2-aza-2-spiro[3.3]heptyl)methanone]
